Tested on: adhesion of neutrophils to EA.hy 926 endothelial cell line
Experiment: Adhesion of neutrophils to TNFα-induced EA.hy 926 endothelial cells
Type: cell-based
Conditions: for reduction of adhesion of neutrophils to cytokine-induced endothelial cell line: EAhy. 926; for inhibition of the adhesion: lower concentration, percent of the adhesion induced by TNFα
Method: The applicants of the present invention have shown that lycopene, lutein and 7% Lye-O-Mato® can improve endothelial function by reducing, to similar extent (60±15%), the adhesion of neutrophils to cytokine-induced endothelial cell line (EAhy. 926). […] Lycopene 610 and oleoresin were diluted by 1:12 fold and lutein by 1:8 fold which result in ˜0.2 μM lycopene 610, ˜0.125 μM oleoresin and ˜0.6 μM lutein. The adhesion of neutrophils to EA.hy 926 cells were measured after the endothelial cells were induced by TNFα which result in increase of 60±10% in the adhesion from their combination, was calculated as percent of the adhesion induced by TNFα

| SMILES | reduction of adhesion of neutrophils to cytokine-induced endothelial cell line (high concentration: lutein 4-5 μM) [%] | inhibition of the adhesion (~0.6 μM lutein, FIG. 1A) [%] | reduction of adhesion of neutrophils to cytokine-induced endothelial cell line (high concentration: lycopene 610 2-3 μM) [%] | inhibition of the adhesion (~0.2 μM lycopene 610, FIG. 1B) [%] |
| --- | --- | --- | --- | --- |
| CC1=C[C@H](O)CC(C)(C)[C@H]1/C=C/C(C)=C/C=C/C(C)=C/C=C/C=C(C)/C=C/C=C(C)/C=C/C1=C(C)C[C@@H](O)CC1(C)C [lutein] | 60±15 | 56±15 |  |  |
| CC(C)=CCC/C(C)=C/C=C/C(C)=C/C=C/C(C)=C/C=C/C=C(C)/C=C/C=C(C)/C=C/C=C(\C)CCC=C(C)C [lycopene] |  |  | 60±15 | 40±22 |
